Data on 1 substance can be found in patent publication US11124774B2, “Engineered liver tissues, arrays thereof, and methods of making the same” (Organovo, Inc., priority 2013, dated 2021).

This test has as its system bioprinted hepatic stellate cell tissues. The experiment in a line: Stimulation of bioprinted hepatic stellate cell tissues with cytokine. The class given is cell-based, human. Here is the method:
FIG. 15 is a non-limiting example of stimulation of bioprinted hepatic stellate cell tissues with TGF-β1.
Cylindrical bio-ink comprising relevant heterogeneous (i.e., polytypic) cell populations were prepared. Physiologically-relevant populations (e.g., hepatic stellate cells (hSC) and human aortic endothelial cells (EC)) of cells were combined at specific ratios to generate proper bio-ink. Cells were maintained and propagated under standard laboratory conditions and cells were cultured in media either purchased from the same vendor as the cells, or media comprising components typically found in the primary literature to be conducive to standard cell culture practices for those particular cell types. Cell processing for bio-ink preparation was as follows: briefly, cells were liberated from standard tissue culture plastic by washing with cation-free phosphate buffered saline (PBS) and then exposed to 0.1-0.05% trypsin (Invitrogen). Liberated cells were then washed in serum-containing media, collected, counted, and combined in an appropriate ratio for the stimulation assay or experiment being conducted, and pelleted by centrifugation. Supernatant was then removed and the cell pellet was aspirated into a glass microcapillary, which was then submerged in complete media for approximately 15 to 20 minutes. This cylindrical bio-ink structure was then extruded into a non cell-adherent hydrogel mold, containing linear channels and held for 2 to 18 hours. Cylindrical bio-ink containing hSC:EC was then used to fabricate bioprinted tissue constructs and maintained and/or matured in a humidified chamber. Tissue segments were fabricated with initial dimensions of 1.25 mm×8 mm×0.25 mm (W×L×H). During the post-bioprinting maturation period some constructs were exposed to the cytokine TGF-β1 to elicit a tissue-specific response (see FIG. 15).
The bioprinted neotissues were then submerged in serum-containing complete cell culture media and placed in a standard humidified chamber, supplemented with 5% CO2 for maturation. The bioprinted neotissues were then cultured and stimulated with a relevant cytokine(s) for a predetermined period of time, formalin-fixed, harvested, and processed for standard histology and immunohistochemistry. The bioprinted tissues were evaluated for characteristics such as, but not limited to for tissue morphology, cell organization, extracellular matrix production, cell proliferation, cell viability, and construct integrity.
Cytokine stimulation was conducted by adding cytokine directly to the culture media and incubating the bioprinted tissues with the added protein to provide direct and prolonged cell access to the proper stimulus. […]

The mark [1] stands for this setting: 0-50 ng/mL, tissue sections of bioprinted hepatic stellate-containing tissues (FIG. 15E-H).

Take “TGF-β1: cytokine (transforming growth factor beta 1) used to elicit a tissue-specific response in bioprinted tissues”: under setting [1], the cell density entry is “dramatic decreases in cell density”, the “collagen deposition (Trichrome staining)” value is reported as “increases in collagen deposition” and the construct size result is “increases”. In addition, the “tissue outgrowth formation (gross observation)” value (increasing concentrations 0, 1, 10, 50 ng/mL, bioprinted hepatic stellate cell sheets (FIG. 15A-D)) was “increases in tissue outgrowth formation”.
